{"source": "patent US20080166805A1", "about": "“Culturing human cells and tissues in an N-glycolylneuraminic acid-free environment” (The Regents of the University of California, priority 2005, published 2008)", "format_in_all_cases": "cell-based", "key": {"[1]": {"test_system": "lysosomal sialic acid transporter mutant human fibroblasts (GM08496)", "test": "Neu5Gc/ManNGc feeding, lysosomal sialic acid transporter mutant fibroblasts GM08496", "conditions": "GM08496 (Salla disease) fibroblasts fed 3 mM for 3 days", "excerpt": "(§1) Cell Lines—Caco-2 cells (human epithelial cells isolated from a primary colon carcinoma), normal human skin fibroblasts (CCD-919-SK) and chinese hamster ovary (CHO-K1) cells were purchased from ATCC (Manassas, Va.) Mutant human skin fibroblasts (GM05520, GM08496 and GM01718) were obtained from the Coriell Institute for Medical Research (Camden, N.J.) Chimpanzee Fred and human […] EBV-transformed lymphoblasts were a gift from Dr. Peter Parham, Stanford University, CA. […]\n(§2) Fractionation of the Labeled Cells—Washed cell pellets were sonicated into 500 μL of 20 mM sodium phosphate buffer or 20 mM Tris-HCl, pH 7.5, using 4×15 second pulses of a sonicator cell disrupter, model Some Dismembrator (Fisher Scientific, Hampton, N.J.) at a probe setting of 3. […] The pellet contained <5% of the incorporated sialic acid as determined using a radioactive tracer (data not shown.) The supernatant was therefore considered as the “total homogenate” fraction. A portion (20%) of the “total homogenate” fraction was taken for protein quantification and Sia analysis by DMB derivatization and HPLC analysis (as discussed below.) The remainder was centrifuged at 100,000×g for 1 h. […] All the Sias in these fractions were released with mild acid hydrolysis if necessary and then analyzed by HPLC after DMB derivatization. […]"}, "[2]": {"test_system": "normal human skin fibroblasts (WT)", "test": "Neu5Gc/ManNGc feeding experiment, normal human skin fibroblasts", "conditions": "normal wild-type (WT) fibroblasts fed 3 mM for 3 days", "description": "Cell Culture—Caco-2 cells were propagated in alpha-MEM containing GLUTAMAX™ (Invitrogen, San Diego, Calif.) and a mixture of ribonucleosides and deoxyribonucleosides (Gibco/Invitrogen, San Diego, Calif.) supplemented with 20% FCS. All the fibroblast cell lines and CHO-K1 cells were cultured in the same media supplemented respectively with 15% non-heat inactivated FCS or 10% heat inactivated FCS. Chimpanzee Fred and human […] EBV-transformed lymphoblasts were cultured in RPMI-1640 (Gibco/Invitrogen, San Diego, Calif.) supplemented with 10% heat inactivated FCS or 15% human serum. All of the cultures were maintained at 37° C., 5% CO2 atmosphere. In order to deplete any remaining Neu5Gc from FCS, the cells were split and cultured prior to Neu5Gc feeding experiments for at least 4 days in alpha-MEM supplemented with an adequate percentage of heat-inactivated premium human serum instead of FCS. The cells were then maintained under the same conditions during the whole feeding experiment. The human serum was heat inactivated at 56° C. for 30 min. before use.\nNeu5Gc and ManNGc Feeding Experiment—Neu5Ac, Neu5Gc or ManNGc were dried, dissolved in the appropriate media supplemented with heat-inactivated human serum, sterilized using a Spin-X® (Corning Inc., Corning, N.Y.) and then added to the cells. The pH of the media containing Sia was adjusted to neutrality using sterilized 1M NaOH before starting the feeding experiment. Cells were cultured in the presence of up to 3 mM free Sia or ManNGc for 1 or 3 days at 37° C. At the end of the feeding, cells were washed with cold PBS, harvested either by scraping or with 2 mM EDTA for fibroblasts, and washed again with cold PBS prior to fractionation.\nFractionation of the Labeled Cells—Washed cell pellets were sonicated into 500 μL of 20 mM sodium phosphate buffer or 20 mM Tris-HCl, pH 7.5, using 4×15 second pulses of a sonicator cell disrupter, model Some Dismembrator (Fisher Scientific, Hampton, N.J.) at a probe setting of 3. The sonicate was centrifuged at 75×g for 15 min., and the pellet obtained consisted primarily of nuclei and unbroken cells. The pellet contained <5% of the incorporated sialic acid as determined using a radioactive tracer (data not shown.) The supernatant was therefore considered as the “total homogenate” fraction. A portion (20%) of the “total homogenate” fraction was taken for protein quantification and Sia analysis by DMB derivatization and HPLC analysis (as discussed below.) The remainder was centrifuged at 100,000×g for 1 h. The resulting pellet, called the “membrane” fraction, was then resuspended by sonication (15 sec.) in 200 μl of sodium acetate buffer, pH 5.5. The 100,000×g supernatant, called the “soluble” fraction was adjusted to 90% ethanol using absolute ice-cold ethanol, and placed overnight at −20° C. The flocculant precipitate, which represents the “soluble protein” fraction, was washed 3 times with 90% ice-cold ethanol and then resuspended in 200 μl of water. […] All the Sias in these fractions were released with mild acid hydrolysis if necessary and then analyzed by HPLC after DMB derivatization. Protein quantification was performed on the total homogenate, membrane and soluble protein fractions by using the BCA protein assay kit from Pierce (Rockford, Ill.) In some experiments, the resulting data obtained for the Sia bound to the membrane fraction and to the soluble proteins were pooled and presented here as a High Molecular Weight (HMW) fraction. […]"}, "[3]": {"test_system": "lysosomal sialic acid transporter mutant human fibroblasts (GM05520)", "test": "Neu5Gc/ManNGc feeding, lysosomal sialic acid transporter mutant fibroblasts GM05520", "conditions": "GM05520 (ISSD) fibroblasts fed 3 mM for 3 days", "excerpt": "as §1, §2"}}, "data": [{"smiles": "O=C(CO)N[C@@H]1C(O)O[C@H](CO)[C@@H](O)[C@@H]1O", "note": "(stereo partly drawn) [ManNGc, N-glycolylmannosamine]", "values": [{"measurement": "percent of Neu5Gc in membrane-bound glycoconjugates", "setting": "[1]", "value": 17, "unit": "%"}, {"measurement": "percent of Neu5Gc incorporation into membrane-bound glycoconjugates", "setting": "[2]", "value": 19, "unit": "%"}, {"measurement": "percent of Neu5Gc in membrane-bound glycoconjugates", "setting": "[3]", "value": 18, "unit": "%"}]}]}
